Laboratory results as given in US4816247A, “Emulsion compositions for administration of sparingly water soluble ionizable hydrophobic drugs” (American Cyanamid Company, priority 1985, dated 1989).
In brackets after ≈: the same amount, converted by molar mass. Entries after “also recorded” stand apart in the source; their conditions may differ. Counter-ions that a name gives are not always drawn.

Key:
[1] = commercial product solution; cited from earlier work
soft tissues / vein = details: cited from earlier work
[2] = Absorption and excretion of antiarthritic triazine compound, candidate dosage forms; details: in vivo
Protocol: (§1) Because the antiarthritic triazine compound is a base, organic acids as counter-ions were studied to improve drug solubility. […] Additional drug complexes were prepared with various organic and inorganic acids. […] The inherent insolubility of the drug appears to be responsible, to some extent, for the preceding results. In order to overcome the drug insolubility problem one of the objectives considered was to design a dosage form which would improve drug absorption when given by intravenous, intramuscular or intra-articular injection.

[3] = assay type: physicochemical
Protocol: as §1

peripheral vein of dogs = test: Peripheral vein irritation, intravenous infusion in peripheral vein of dogs, gross postmortem findings; assay type: in vivo, dog
Protocol: (§2) The emulsin drug delivery system formulation of Emulsion 3 in Table III was tested in two species of animals, for peripheral vein irritation in order to determine the occurrence of local injection site adverse reactions. Also tested was a 1.0 mg/ml solution of bisantrene hydrochloride in 5% dextrose/water and a composition of the Emulsion 3 vehicle without bisantrene base. The two species of animals used were rabbits and dogs. The formulations were given intravenously in a peripheral vein using a Butterfly infusion set (Becton, Dickinson Co., Inc., Rutherford, N.J). The marginal ear vein was used in the rabbit and the saphenous or the cephalic vein of the leg was used in the dog.
(§3) The formulations were given below by slow intravenous infusion using a Sage syringe pump (Sage Instruments, Orion Research Inc., Cambridge, Ma.) over a 2 hour period. The animals were restrained but unanesthetized during the infusion. After the infusion, the animals were returned to their cages and offered food. The animals were sacrificed one day after the infusion.
(§4) At sacrifice, the infused vein was opened from the point of infusion and cardiad for several centimeters. […] FIGS. 3, 4 and 5 are comprised of representative photographs of the opened peripheral veins of dogs as hereinabove described and verify the findings stated above.

white blood cell counts = test: Group mean white blood cell counts, repeated intravenous infusion in dogs; assay type: in vivo; details: dog
Protocol: A comparison study of the group mean white blood cell counts (WBC×10^-3) was conducted separately for both the male and female animals in each group. The WBC counts of all animals were performed 7 days before dosing. Doses were administered on days 0, 21 and 42, whereas additional WBC counts on all animals were made on days 3, 7, 14, 20, 24, 28, 35, 41, 45, 49 and 56. The mean data from this test are recorded in Table VI and the group mean white blood cell counts for males and females are plotted separately in FIGS. 6 and 7 respectively.

dogs = test: Clinical signs and injection site findings, repeated intravenous infusion in dogs; details: dog
[4] = system: marginal ear vein of rabbits; test: Peripheral vein irritation, intravenous infusion in marginal ear vein of rabbits, gross postmortem findings; assay type: in vivo, rabbit; set-up: key to External: Reddened / External: Yellow Deposit / Subcutaneous: Hemorrhage / Vascular Lumen: Yellow Deposit / External: Swollen / Subcutaneous: Edema / Subcutaneous: Yellow Deposit / Vascular Lumen: Blood Clot: +: Positive or present.; -: Negative or absent
Protocol: as §2, §3, §4

[5] = Solubility of bisantrene in selected media and biological fluids (Table IB, FIGS. 1 and 2); assay type: physicochemical; details: in words
Excerpt: (§5) In serum and plasma, however due to increase in the pH the solubility drops considerably and this may be the reason that the drug precipitates at the point of infusion. […] Thus, if the drug can be kept in solution long enough to allow complete dilution in the entire blood volume, then the partitioning should take place without the intermediate precipitation.

erythrocytes = test: Partitioning of bisantrene in blood; assay type: in vitro ADME; details: in words
Excerpt: as §5

[6] = Solubility of bisantrene base and its oleate ion-pair in water, oils and emulsions; assay type: physicochemical; details: in words
Excerpt: Bisantrene base is insoluble in water, oils, oil phase of emulsions or preformed commercial, nutritional emulsions such as Intralipid® and Liposyn®. When Bisantrene base forms an ion-pair with oleic acid the solubility of Bisantrene increases in oils or oil phases of emulsions. Additionally, Bisantrene-oleate ion-pair acts as a surfactant, becomes part of an interfacial emulsion film and stabilizes the emulsion in vitro.

plasma protein = details: cited from earlier work
[7] = rabbit, female, 2 h i.v. infusion
[8] = rabbit, male, 2 h i.v. infusion

**Q.** For `CC(C)NCC(O)COc1cccc2ccccc12` (racemic) [Inderal, propanolol], which “Ambient Solution pH” value [1] is on record?
**A.** The value was 3.50.

**Q.** For `COc1cccc2c1C(=O)c1c(O)c3c(c(O)c1C2=O)C[C@@](O)(C(=O)CO)C[C@@H]3O[C@H]1C[C@H](N)[C@H](O)[C@H](C)O1` [Adriamycin, Doxorubicin], which “effect of extravasation into the soft tissues” value (soft tissues / vein; intravenous administration in cancer therapy) is on record?
**A.** The value was “massive tissue necrosis about the site of the attempted intravenous administration”.

**Q.** With `CC(C)(C)C(C)(C)Nc1nc(NC(C)(C)C(C)(C)C)nc(N2CC3CCC(CC3)C2)n1` [Antiarthritic Triazine Compound, 3-[4,6-bis[(1,1-2,2-tetramethylpropyl)amino]-s-triazin-2-yl]-3-azabicyclo[3.2.2]nonane] as the compound, how does the “parenteral absorption of the drug” value [2] read?
**A.** The value was “negligible”.

**Q.** And the oral absorption ([2]; po)?
**A.** Its oral absorption is “slightly better”.

**Q.** And the Solubility [3]?
**A.** Its Solubility is 300 µg/mL (≈ 697 µM).

**Q.** What about the “increase of solubility not more than” value [3] of the same compound?
**A.** Its value is 500 to 1000 µg/mL.

**Q.** And the solubility in water [3]?
**A.** Its solubility in water is “insignificant solubility in water”.

**Q.** Which “Ambient Solution pH” value [1] does the source give for `C[C@H](N)[C@H](O)c1cccc(O)c1` [Aramine, metaraminol] here?
**A.** The value was 3.60.

**Q.** Which “Ambient Solution pH” value [1] does the source give for `OCCOCCN1CCN(C(c2ccccc2)c2ccc(Cl)cc2)CC1` (centres unmarked) [Atarax, hydroxyzine] here?
**A.** The value was 5.60.

**Q.** What does the source list for `C(=N\NC1=NCCN1)/c1c2ccccc2c(/C=N/NC2=NCCN2)c2ccccc12` [Bisantrene HCl]?
**A.** yellow-orange deposit in vascular-lumen, photograph of dog vein (peripheral vein of dogs; FIGS. 3A, 3B, 4A, 5A, listed as bisantrene hydrochloride): clearly shows the yellow-orange deposits in the vascular-lumen; yellow or yellow-orange deposits in vascular-lumen (peripheral vein of dogs; peripheral vein of dogs): yellow or yellow-orange deposits which result; group mean white blood cell count (white blood cell counts; female, day 3, 10 mg/kg i.v. on days 0, 21, 42): 6.3 WBC × 10^-3; group mean white blood cell count (white blood cell counts; female, day 7, 10 mg/kg i.v. on days 0, 21, 42): 4.5 WBC × 10^-3; group mean white blood cell count (white blood cell counts; female, day 14, 10 mg/kg i.v. on days 0, 21, 42): 8.6 WBC × 10^-3; group mean white blood cell count (white blood cell counts; female, day 20, 10 mg/kg i.v. on days 0, 21, 42): 10.5 WBC × 10^-3; group mean white blood cell count (white blood cell counts; female, day 24, 10 mg/kg i.v. on days 0, 21, 42): 5.1 WBC × 10^-3; group mean white blood cell count (white blood cell counts; female, day 28, 10 mg/kg i.v. on days 0, 21, 42): 4.1 WBC × 10^-3; group mean white blood cell count (white blood cell counts; female, day 35, 10 mg/kg i.v. on days 0, 21, 42): 13.0 WBC × 10^-3; group mean white blood cell count (white blood cell counts; female, day 41, 10 mg/kg i.v. on days 0, 21, 42): 9.7 WBC × 10^-3; group mean white blood cell count (white blood cell counts; female, day 45, 10 mg/kg i.v. on days 0, 21, 42): 5.1 WBC × 10^-3; group mean white blood cell count (white blood cell counts; female, day 49, 10 mg/kg i.v. on days 0, 21, 42): 6.0 WBC × 10^-3; group mean white blood cell count (white blood cell counts; female, day 56, 10 mg/kg i.v. on days 0, 21, 42): 13.2 WBC × 10^-3; group mean white blood cell count (white blood cell counts; female, day -7 (before dosing)): 10.1 WBC × 10^-3; group mean white blood cell count (white blood cell counts; male, day 3, 10 mg/kg i.v. on days 0, 21, 42): 7.0 WBC × 10^-3; group mean white blood cell count (white blood cell counts; male, day 7, 10 mg/kg i.v. on days 0, 21, 42): 3.7 WBC × 10^-3; group mean white blood cell count (white blood cell counts; male, day 14, 10 mg/kg i.v. on days 0, 21, 42): 11.1 WBC × 10^-3; group mean white blood cell count (white blood cell counts; male, day 20, 10 mg/kg i.v. on days 0, 21, 42): 10.8 WBC × 10^-3; group mean white blood cell count (white blood cell counts; male, day 24, 10 mg/kg i.v. on days 0, 21, 42): 5.1 WBC × 10^-3; group mean white blood cell count (white blood cell counts; male, day 28, 10 mg/kg i.v. on days 0, 21, 42): 2.9 WBC × 10^-3; group mean white blood cell count (white blood cell counts; male, day 35, 10 mg/kg i.v. on days 0, 21, 42): 13.5 WBC × 10^-3; group mean white blood cell count (white blood cell counts; male, day 41, 10 mg/kg i.v. on days 0, 21, 42): 11.3 WBC × 10^-3; group mean white blood cell count (white blood cell counts; male, day 45, 10 mg/kg i.v. on days 0, 21, 42): 5.3 WBC × 10^-3; group mean white blood cell count (white blood cell counts; male, day 49, 10 mg/kg i.v. on days 0, 21, 42): 3.3 WBC × 10^-3; group mean white blood cell count (white blood cell counts; male, day 56, 10 mg/kg i.v. on days 0, 21, 42): 12.8 WBC × 10^-3; group mean white blood cell count (white blood cell counts; male, day -7 (before dosing)): 11.3 WBC × 10^-3; clinical signs during the intravenous infusion (dogs; 10 mg/kg, about 2 h infusion): none was apparent; swelling of the infused leg (dogs; 10 mg/kg, about 2 h infusion): three; local injection site deposits or binding of the drug, inflammation and phlebitis (dogs; conclusion of study): present; yellow or yellow-orange deposits in vascular-lumen ([4]; marginal ear vein of rabbits): yellow or yellow-orange deposits which result; External: Reddened [4, 7]: +; External: Yellow Deposit [4, 7]: +; Subcutaneous: Hemorrhage [4, 7]: -; Vascular Lumen: Yellow Deposit [4, 7]: +; External: Reddened [4, 8]: -; External: Swollen [4, 8]: -; External: Yellow Deposit [4, 8]: -; Subcutaneous: Edema [4, 8]: +; Subcutaneous: Hemorrhage [4, 8]: -; Subcutaneous: Yellow Deposit [4, 8]: -; Vascular Lumen: Blood Clot [4, 8]: -; Vascular Lumen: Yellow Deposit [4, 8]: +

**Q.** Which results are given for `C(=N\NC1=NCCN1)/c1c2ccccc2c(/C=N/NC2=NCCN2)c2ccccc12` [Bisantrene, bis(2-imidazolin-2-ylhydrazone)-9,10-anthracenedicarboxaldehyde]?
**A.** solubility in whole blood ([5]; compared with plasma and serum): much greater than in plasma and serum; solubility characteristics of bisantrene [5]: very sensitive to temperature changes, pH, and various solutes; also recorded: quite soluble in media useful as candidates for I.V. infusions such as normal saline and 5% dextrose; partitioning in blood (erythrocytes): eventually partitions into the erythrocytes which then serve as slow release carriers; solubility in water, oils, oil phase of emulsions or preformed commercial nutritional emulsions [6]: insoluble

**Q.** With `C(=NNC1=NCCN1)c1c2ccccc2c(C=NNC2=NCCN2)c2ccccc12` [Bisantrene-oleate ion-pair] as the compound, how does the “solubility in oils or oil phases of emulsions” value ([6]; ion-pair with oleic acid) read?
**A.** Its value is “increases”.

**Q.** Which “Ambient Solution pH” value [1] does the source give for `CC(=O)Nc1ccc(OCC(O)CNC(C)C)cc1` (centres unmarked) [Eraldin, practolol] here?
**A.** Its value is 5.80.

**Q.** Which “problem likely to occur on intravenous injection” value (soft tissues / vein; aqueous solution i.v. in mammals) does the source give for `C(=N\NC1=NCCN1)/c1c2ccccc2c(/C=N/NC2=NCCN2)c2ccccc12` [bisantrene dihydrochloride] here?
**A.** The value was “chemical phlebitis”.

**Q.** With `CCCCCCCC/C=C\CCCCCCCC(=O)O` [oleic acid] as the compound, how does the “molecules bound with one molecule of typical plasma protein” value (plasma protein) read?
**A.** Its value is “nine”.
